Test [1] deals with T1, C. difficile Glutamate 2,3-aminomutase (Clostridioides difficile, UniProt Q185C5, V264I).
T1 construct: made in house; host or cells: E. coli BL21(DE3) CodonPlus RILP, pET23a(+)
Format: biochemical, Clostridium difficile. Conditions: for rate of reaction to the other isomer: 20 mM substrate; for Specific Activity: substrate 20 mM. The protocol:
Glutamate 2,3-aminomutase Activity Measurements. Enzyme assays were conducted in an anaerobic chamber (Coy, Grass Lake, Mich.) at 37° C. […] At various time intervals (0-3 min), 45 μl of reaction mix was added to 15 μl of 2N perchloric acid to stop the reaction. Samples were centrifuged at 14,000×g for 10 min. The supernatant fluids were treated with PITC according to the method of Heinrikson and Meredith (20). Samples were dissolved in 100 μl of coupling buffer, concentrated to dryness by vacuum centrifugation, redissolved in 400 μl coupling buffer plus 20 μl of PITC, allowed to react for 30 min at room temperature, concentrated to dryness as above, and dissolved in either 0.5 or 1.0 ml water prior to injection (50 or 100 μl). The PITC derivative of L-glutamate was separated from the β-glutamate derivative by HPLC chromatography (20) using a C18 reverse phase column (Phenomenex Gemini 5μ, 4.6 mm×25 cm, #G-4435-E0), flow rate 1 ml/min, room temperature. The PITC-amino acids were separated with a linear gradient composed of 0.05 M ammonium acetate in water (buffer A) and 0.1 M ammonium acetate in 44% water, 46% acetonitrile, and 10% methanol (buffer B). The gradient established was 0-10% Buffer B in 20 min, 10-100% Buffer B in 10 min. […] Concentrations of L-glutamate or β-glutamate were measured using an amino acid standard solution (Pierce Chemical Co., #20088). For enzyme activity measurements at selected time points, the peak area of either L-glutamate or β-glutamate was divided by the total peak area (L-glutamate+β-glutamate) and multiplied by the starting concentration of either L-glutamate or β-glutamate to obtain molar concentrations. Enzyme kinetic parameters were determined by varying the concentration of L-glutamate (0.6-20 mM). Two separate analyses were conducted at two concentrations of enzyme (0.75 and 0.15 μM—subunit) with remaining conditions as stated above. Initial velocities were measured and used to calculate kinetic parameters (Vmax and Km) by the nonlinear least squares curve fitting method of Cleland (25).

The target in test [2] is T1, C. difficile Glutamate 2,3-aminomutase. Format: biochemical, Clostridium difficile. Conditions: for Keq: 24° C. The protocol: Measurement of the Equilibrium Constant for Conversion of L-Glutamate into β-Glutamate Catalyzed by Glutamate 2,3-aminomutase. Assays were conducted as previously described (see activity measurements above) except at 24° C. […] Initial enzyme concentrations were either 0.75 μM or 0.15 μM. After approximately 4 hours at 24° C., an additional aliquot of enzyme was added to make the final enzyme concentration either 1.5 μM or 0.3 μM, and the reaction was allowed to proceed for an additional 16 hours at 24° C. The reaction was stopped with 0.55 N perchloric acid, and the amino acids were derivatized with PITC as previously described. Following HPLC separation of the PITC derivatized L-glutamate and β-glutamate, the simple ratio of the peak areas of the two compounds was calculated based on the equivalent extinction coefficient of the two compounds (20).

Read-outs that look alike come from different tables or passages of the source.

Four compounds from patent US7456271B2, “Glutamate 2,3-aminomutases and methods of use thereof” (Wisconsin Alumni Research Foundation, priority 2005, dated 2008) can be followed below.

On to `NCCCC[C@H](N)C(=O)O` [L-lysine, reference compound], for which, in test [1] (substrate specificity), the “conversion to β-lysine by glutamate 2,3-aminomutase” value is recorded as “does not catalyze”.

As to `NC(CC(=O)O)CC(=O)O` [β-Glutamate, β-glutamate], in test [1], the “rate of reaction to the other isomer” value is recorded as 2.3 μmoles min^−1· (mg protein)^−1. For the same compound, in test [1] (SAM +, Dithionite +, 37° C.), the “Specific Activity” value is given as 2.3 μmoles · min^−1 · mg^−1 Protein. In addition, the Keq in test [2] ([β-Glutamate] start 0.6 mM, [Enzyme] 0.30 μM (subunit)) came out at 15.6; in test [2] ([β-Glutamate] start 0.6 mM, [Enzyme] 1.5 μM (subunit)) it was 15.3; in test [2] ([β-Glutamate] start 1.4 mM, [Enzyme] 0.30 μM (subunit)), 15.6; in test [2] ([β-Glutamate] start 1.4 mM, [Enzyme] 1.5 μM (subunit)), 15.8; in test [2] ([β-Glutamate] start 3.1 mM, [Enzyme] 0.30 μM (subunit)) it was 16.2; in test [2] ([β-Glutamate] start 3.1 mM, [Enzyme] 1.5 μM (subunit)), 16.3. Further, the Keq in test [2] ([β-Glutamate] start 6.2 mM, [Enzyme] 0.30 μM (subunit)) amounted to 15.7; in test [2] ([β-Glutamate] start 6.2 mM, [Enzyme] 1.5 μM (subunit)), 16.4; in test [2] ([β-Glutamate] start 12.3 mM, [Enzyme] 0.30 μM (subunit)), 16.6; in test [2] ([β-Glutamate] start 12.3 mM, [Enzyme] 1.5 μM (subunit)), 16.4; in test [2] ([β-Glutamate] start 22.9 mM, [Enzyme] 1.5 μM (subunit)) it was 15.9; in test [2] ([β-Glutamate] start 24.3 mM, [Enzyme] 0.30 μM (subunit)) it was 16.1. For the same compound, in test [2] (same end point from either substrate), the “equilibrium ratio of β-Glu to L-glutamate” value is “approximately 16”.

Turning to `O=S([O-])S(=O)[O-].[Na+].[Na+]` [dithionite, sodium dithionite, reference compound], the “effect of excess on enzyme activity” value in test [1] (excess, progressive loss of activity over time at >70 μM (FIG. 3)) is given as “inhibitory”.

In the case of `N[C@@H](CCC(=O)O)C(=O)O` [L-Glutamate, L-glutamate], the “rate of reaction to the other isomer” value in test [1] is recorded as 5.9 μmoles min^−1· (mg protein)^−1. Further, the maximum velocity in test [1] (37° C., forward direction) is recorded as 7 μmoles of β-glutamate min^−1· (mg protein)^−1. The Vmax in test [1] (Assay 1, 37° C.) is listed as 7.5 ± 0.18 μmoles · β-Glutamate min^−1 (mg protein)^−1; in test [1] (Assay 2, 37° C.), 7.3 ± 0.19 μmoles · β-Glutamate min^−1 (mg protein)^−1. The kcat – broadly, the number of substrate molecules converted per active site and unit of time at saturation – is 6.2 s⁻¹ in test [1] (Assay 1, 37° C.); 6.0 s⁻¹ in test [1] (Assay 2, 37° C.); 6 s⁻¹ in test [1] (conditions of Table 3). For the same compound, the Km (in general, the substrate concentration at which the rate is half of its maximum) in test [1] (Assay 1, 37° C., read-out: Km (L-Glutamate)) was determined as 2200 ± 160 µM; in test [1] (Assay 2, 37° C., read-out: Km (L-Glutamate)) it was 2300 ± 180 µM; in test [1] (forward direction, conditions of Table 3, read-out: Michaelis constant (Km)), 2000 µM. Besides, the “Specific Activity” value is given as 5.9 μmoles · min^−1 · mg^−1 Protein in test [1] (SAM +, Dithionite +, 37° C.); 0.16 μmoles · min^−1 · mg^−1 Protein in test [1] (SAM +, Dithionite −, 37° C.); <0.01 μmoles · min^−1 · mg^−1 Protein in test [1] (SAM −, Dithionite +, 37° C.). The Keq in test [2] ([L-Glutamate] start 0.6 mM, [Enzyme] 1.5 μM (subunit)) came out at 14.2; in test [2] ([L-Glutamate] start 0.8 mM, [Enzyme] 0.30 μM (subunit)), 14.8; in test [2] ([L-Glutamate] start 1.4 mM, [Enzyme] 1.5 μM (subunit)), 15.2; in test [2] ([L-Glutamate] start 1.6 mM, [Enzyme] 0.30 μM (subunit)), 15.7; in test [2] ([L-Glutamate] start 3.1 mM, [Enzyme] 1.5 μM (subunit)), 16.0; in test [2] ([L-Glutamate] start 3.2 mM, [Enzyme] 0.30 μM (subunit)) it was 15.9. For the same compound, the Keq in test [2] ([L-Glutamate] start 6.4 mM, [Enzyme] 0.30 μM (subunit)) came to 15.9; in test [2] ([L-Glutamate] start 6.6 mM, [Enzyme] 1.5 μM (subunit)) it was 15.6; in test [2] ([L-Glutamate] start 12.4 mM, [Enzyme] 1.5 μM (subunit)) it was 15.6; in test [2] ([L-Glutamate] start 12.9 mM, [Enzyme] 0.30 μM (subunit)) it was 16.3; in test [2] ([L-Glutamate] start 22.1 mM, [Enzyme] 0.30 μM (subunit)) it was 15.5; in test [2] ([L-Glutamate] start 22.9 mM, [Enzyme] 1.5 μM (subunit)), 15.3.
